According to PubChem BioAssay (NCI):
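A five-concentration, 48-hour dose response in 96-well plates underlies each endpoint, interpolated linearly between surrounding concentrations. GI50: concentration for 50% inhibition of growth. TGI: total growth inhibition.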

Columns and labels:
Test in all cases: growth of human tumour cells (NCI), 48 h
[1] = test system: HCT-116 colon
[2] = test system: HT29 colon
[3] = test system: HCT-15 colon
[4] = test system: SK-MEL-5 melanoma
[5] = test system: UO-31 renal
[6] = test system: SK-MEL-28 melanoma
[7] = test system: NCI-H522 lung
[8] = test system: BT-549 breast
[9] = test system: MALME-3M melanoma
[10] = test system: LOX IMVI melanoma

Row | SMILES | TGI [1] [µM] | TGI [2] [µM] | TGI [3] [µM] | TGI [4] [µM] | TGI [5] [µM] | TGI [6] [µM] | TGI [7] [µM] | TGI [8] [µM] | TGI [9] [µM] | TGI [10] [µM] | GI50 [1] [µM] | GI50 [2] [µM] | GI50 [3] [µM] | GI50 [4] [µM] | GI50 [5] [µM] | GI50 [6] [µM] | GI50 [7] [µM] | GI50 [8] [µM] | GI50 [9] [µM] | GI50 [10] [µM]
1 | CCCNC(=O)CCC(C)[C@H]1CCC2C3C(C[C@H](OC(C)=O)[C@@]21C)[C@@]1(C)CCC2(C[C@H]1C[C@H]3OC(C)=O)OOC1(CCCCC1)OO2 (some centres undefined) | > 61.5 | > 90.8 | > 100 | 5.71 | 0.232 | > 100 | 1.44 | 12.4 | 6.04 | 3.52 | – | – | – | – | – | – | – | – | – | –
2 | NC(=O)C1=CC2C3C=CC2(O)C(=O)OC3O1 (centres undefined) | 7.41 | 9.83 | 13.9 | 6.32 | 13.7 | 8.48 | 4.31 | 17.3 | 4.03 | 5.18 | – | – | – | – | – | – | – | – | – | –
3 | COc1cc(-n2cc(-c3cc(O)c(C/C=C(\C)CCC=C(C)C)c(O)c3)nn2)cc2c1O[C@]1(C)CC[C@@H](O)C(C)(C)[C@H]1C2 | 23.5 | 5.81 | 9.7 | 5.77 | 1.96 | 27.6 | 4.35 | 20.5 | 8.4 | 1.09 | 1.15 | 1.71 | 1.08 | 1.33 | 0.365 | 0.754 | 1.19 | 0.974 | 1.38 | 0.186
4 | COC(=O)c1c(OC)cc2cc3c(c(O)c2c1C)C(=O)C1(O)C(=O)C=C(OC)C(OC(=O)CC(C)N)=C1C3=O (centres undefined) | > 100 | 43.7 | > 100 | > 100 | > 100 | > 100 | > 100 | > 100 | – | > 100 | – | – | – | – | – | – | – | – | – | –
5 | CC/C(Cl)=N\OC(=O)Nc1ccc(F)cc1F | 19.1 | 51.2 | 5.24 | 20.6 | 29.4 | 35.9 | 3.65 | 6.93 | 12 | 6.57 | – | – | – | – | – | – | – | – | – | –
6 | O=c1oc2ccc(Cl)cc2cc1-c1cn2ccsc2n1 | > 100 | > 100 | > 100 | > 100 | > 100 | > 100 | 47.9 | 70.3 | > 100 | > 100 | – | – | – | – | – | – | – | – | – | –
7 | Cc1c2cccc-2ccc2c1[nH]c1ccccc12 | 4.96 | 14.4 | 9.01 | 3.34 | 3.14 | 3.67 | 3.9 | 9.56 | 4.03 | 6.41 | – | – | – | – | – | – | – | – | – | –
8 | O=S1(=O)CCN(c2ccccc2CC(c2c[nH]c3ccccc23)c2c[nH]c3ccccc23)CC1 | 16.5 | 23.3 | 36.3 | 19.8 | 72 | 28.8 | 17.2 | 37.3 | 43.7 | 11.6 | – | – | – | – | – | – | – | – | – | –
